According to patent US11912701B2, “Protein kinase inhibitors for promoting liver regeneration or reducing or preventing hepatocyte death” (HEPAREGENIX GMBH, priority 2018, dated 2024):

How the values were obtained:
Format in all cases: biochemical
MKK4 = target: T1, MKK4 (Homo sapiens, UniProt P45985); assay: 33PanQinase enzyme assay, MKK4; settings: assay 'IC50'; read-out: Potency MKK4 (IC50)
T1 construct: purchased ProQinase GmbH, Freiburg, Germany (33PanQinase Assay Service)
T1 sequence (P45985 1-399): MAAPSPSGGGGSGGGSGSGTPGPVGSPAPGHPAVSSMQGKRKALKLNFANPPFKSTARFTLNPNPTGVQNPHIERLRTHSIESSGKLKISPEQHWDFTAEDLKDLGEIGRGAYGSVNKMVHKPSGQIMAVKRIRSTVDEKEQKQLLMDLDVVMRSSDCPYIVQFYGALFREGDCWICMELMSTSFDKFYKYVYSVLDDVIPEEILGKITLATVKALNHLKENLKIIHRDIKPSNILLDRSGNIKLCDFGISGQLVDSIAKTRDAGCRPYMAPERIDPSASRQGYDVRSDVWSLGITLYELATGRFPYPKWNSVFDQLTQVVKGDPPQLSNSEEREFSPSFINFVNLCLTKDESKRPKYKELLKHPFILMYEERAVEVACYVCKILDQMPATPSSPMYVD
Protocol: (§1) The kinase activities of the compounds of the invention were measured using the 33PanQinase® Assay Service provided by ProQinase GmbH, Freiburg, Germany. Details of the assay conditions are disclosed on the website of ProQinase (https://www.proginase.com/products-services-biochemical-assay-services/kinase-assays). In brief, all kinase assays were performed in 96-well FlashPlates™ from PerkinElmer (Boston, MA, USA) in a 50 μl reaction volume. The reaction cocktail was pipetted in four steps in the following order: • 20 μl of assay buffer (standard buffer) • 5 μl of ATP solution (in H2O) • 5 μl of test compound (in 10% DMSO) • 20 μl enzyme/subtrate mix
(§2) The reaction cocktails were incubated at 30° C. for 60 minutes. The reaction is stopped with 50 μl of 2% (v/v) H3PO4, plates were aspirated and washed two times with 200 μl 0.9% (w/v) NaCl. Incorporation of ^33Pi was determined with a microplate scintillation counter (Microbeta, Wallac).
(§3) All assays were performed with a BeckmanCoulter/SAGIAN™ Core System.
(§4) In case of single concentration assays, the potency of the test compound is expressed as % residual activity. […] The fitting method used was a least-squares fit.
Inhibition potency against MKK4 is categorized as follows:
Assay at single concentration (100 nM):

BRaf = target: T2, BRaf (Homo sapiens, UniProt P15056); assay: 33PanQinase enzyme assay, BRaf; settings: ratio IC50(BRaf)/IC50(MKK4)
T2 construct: purchased ProQinase GmbH, Freiburg, Germany (33PanQinase Assay Service)
T2 sequence (P15056 whole entry, species assumed): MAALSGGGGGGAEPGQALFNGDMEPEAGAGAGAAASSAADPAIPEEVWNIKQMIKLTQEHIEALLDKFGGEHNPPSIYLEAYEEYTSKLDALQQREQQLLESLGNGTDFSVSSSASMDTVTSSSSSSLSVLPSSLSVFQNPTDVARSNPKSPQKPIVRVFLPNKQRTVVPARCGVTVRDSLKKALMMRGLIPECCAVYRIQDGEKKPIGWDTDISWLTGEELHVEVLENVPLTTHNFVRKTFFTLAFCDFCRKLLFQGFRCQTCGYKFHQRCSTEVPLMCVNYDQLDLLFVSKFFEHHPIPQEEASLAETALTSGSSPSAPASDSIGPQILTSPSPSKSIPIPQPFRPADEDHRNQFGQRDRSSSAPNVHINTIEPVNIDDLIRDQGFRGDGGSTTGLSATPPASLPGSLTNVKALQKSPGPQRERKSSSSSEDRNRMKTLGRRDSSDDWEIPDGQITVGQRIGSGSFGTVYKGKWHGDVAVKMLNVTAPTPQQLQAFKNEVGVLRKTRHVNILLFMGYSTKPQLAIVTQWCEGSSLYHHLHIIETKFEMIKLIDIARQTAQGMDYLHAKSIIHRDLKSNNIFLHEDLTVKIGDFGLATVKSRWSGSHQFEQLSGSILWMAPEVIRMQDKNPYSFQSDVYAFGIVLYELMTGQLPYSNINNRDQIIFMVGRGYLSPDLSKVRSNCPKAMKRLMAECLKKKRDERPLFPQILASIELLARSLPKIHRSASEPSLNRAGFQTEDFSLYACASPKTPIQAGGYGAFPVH
Protocol: as §1, §2, §3, §4
(§5) Selectivity of test compounds against BRaf, JNK1 and MKK7, altogether denominated as off-targets was calculated by the ratio of IC50 (off-target)/IC50 (MKK4) and categorized as follows: […]

JNK1 = JNK1 (Homo sapiens, UniProt P45983); assay: 33PanQinase enzyme assay, JNK1; design: purchased ProQinase GmbH, Freiburg, Germany (33PanQinase Assay Service); settings: ratio IC50(JNK1)/IC50(MKK4)
Chain of JNK1 (P45983 whole entry): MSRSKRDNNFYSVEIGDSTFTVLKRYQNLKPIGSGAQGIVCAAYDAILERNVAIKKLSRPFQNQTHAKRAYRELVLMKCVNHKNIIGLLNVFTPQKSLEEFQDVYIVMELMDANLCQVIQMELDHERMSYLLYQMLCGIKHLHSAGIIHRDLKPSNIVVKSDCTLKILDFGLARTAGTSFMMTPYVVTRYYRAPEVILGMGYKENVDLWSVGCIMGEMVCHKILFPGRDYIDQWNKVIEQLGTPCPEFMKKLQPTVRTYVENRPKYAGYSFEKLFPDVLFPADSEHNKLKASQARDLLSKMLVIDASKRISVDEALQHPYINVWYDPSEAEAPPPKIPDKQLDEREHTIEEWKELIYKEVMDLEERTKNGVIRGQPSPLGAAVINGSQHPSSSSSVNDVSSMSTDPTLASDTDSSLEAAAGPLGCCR
Protocol: as §1, §2, §3, §4, §5

MKK7 = target: T3, MKK7 (Homo sapiens, UniProt O14733); assay: 33PanQinase enzyme assay, MKK7; design: purchased ProQinase GmbH, Freiburg, Germany (33PanQinase Assay Service); settings: ratio IC50(MKK7)/IC50(MKK4)
T3 sequence (O14733 1-419): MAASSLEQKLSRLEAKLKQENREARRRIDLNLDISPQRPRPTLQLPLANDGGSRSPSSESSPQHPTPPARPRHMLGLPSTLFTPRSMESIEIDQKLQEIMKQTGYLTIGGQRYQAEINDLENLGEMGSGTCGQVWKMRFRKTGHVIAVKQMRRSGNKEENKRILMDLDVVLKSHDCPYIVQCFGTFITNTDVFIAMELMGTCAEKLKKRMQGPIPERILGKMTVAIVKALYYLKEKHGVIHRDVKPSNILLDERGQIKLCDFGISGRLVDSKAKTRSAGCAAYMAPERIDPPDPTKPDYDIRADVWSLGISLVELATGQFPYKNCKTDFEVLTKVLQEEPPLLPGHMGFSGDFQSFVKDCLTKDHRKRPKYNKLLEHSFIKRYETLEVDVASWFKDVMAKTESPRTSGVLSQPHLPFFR
Protocol: as §1, §2, §3, §4, §5

Row | Structure (SMILES) | IC50 (MKK4) | Selectivity Braf, IC50(off-target)/IC50(MKK4) (BRaf) | Selectivity JNK1, IC50(off-target)/IC50(MKK4) (JNK1) | Selectivity IVIKK7, IC50(off-target)/IC50(MKK4) (MKK7)
1 | CCCS(=O)(=O)Nc1ccc(F)c(C(=O)c2c[nH]c3ncc(N4CCC(=O)CC4)cc23)c1F [Example 135, N-(2,4-difluoro-3-(5-(4-oxopiperidin-1-yl)-1H-pyrrolo[2,3-b]pyridine-3-carbonyl)phenyl)propane-1-sulfonamide] | 1 to 10 µM | ◯ (3 ≥ IC50(off-target)/IC50(MKK4)) | ◯ (3 ≥ IC50(off-target)/IC50(MKK4)) | ++ (100 ≥ IC50(off-target)/IC50(MKK4) > 10)
2 | CCCS(=O)(=O)Nc1ccc(F)c(C(=O)c2c[nH]c3ncc(N4CCC(O)CC4)cc23)c1F [Example 136, N-(2,4-difluoro-3-(5-(4-hydroxypiperidin-1-yl)-1H-pyrrolo[2,3-b]pyridine-3-carbonyl)phenyl)propane-1-sulfonamide] | 1 to 10 µM | ◯ (3 ≥ IC50(off-target)/IC50(MKK4)) | ◯ (3 ≥ IC50(off-target)/IC50(MKK4)) | ++ (100 ≥ IC50(off-target)/IC50(MKK4) > 10)
3 | CCCS(=O)(=O)Nc1ccc(F)c(C(=O)c2c[nH]c3ncc(N4CC(C(=O)O)C4)cc23)c1F [Example 137, 1-(3-(2,6-difluoro-3-(propylsulfonamido)benzoyl)-1H-pyrrolo[2,3-b]pyridin-5-yl)azetidine-3-carboxylic acid] | 0.1 to 1 µM | ◯ (3 ≥ IC50(off-target)/IC50(MKK4)) | + (10 ≥ IC50(off-target)/IC50(MKK4) > 3) | +++ (IC50(off-target)/IC50(MKK4) > 100)
4 | CCCS(=O)(=O)Nc1ccc(F)c(C(=O)c2c[nH]c3ncc(N4CC(C)OC(C)C4)cc23)c1F (stereo not shown) [Example 138, N-(3-(5-(2,6-dimethyl-morpholino)-1H-pyrrolo[2,3-b]pyridine-3-carbonyl)-2,4-difluorophenyl)propane-1-sulfonamide] | 1 to 10 µM | ◯ (3 ≥ IC50(off-target)/IC50(MKK4)) | ◯ (3 ≥ IC50(off-target)/IC50(MKK4)) | ++ (100 ≥ IC50(off-target)/IC50(MKK4) > 10)
5 | CCCS(=O)(=O)Nc1ccc(F)c(C(=O)c2c[nH]c3ncc(N4CCCCC4)cc23)c1F [Example 140] | 1 to 10 µM | ◯ (3 ≥ IC50(off-target)/IC50(MKK4)) | ◯ (3 ≥ IC50(off-target)/IC50(MKK4)) | ++ (100 ≥ IC50(off-target)/IC50(MKK4) > 10)
6 | O=C(c1ccc(F)c(NS(=O)(=O)CCC(F)(F)F)c1F)c1c[nH]c2ncc(-c3cnc(C(F)(F)F)nc3)cc12 [Example 142, N-(2,6-difluoro-3-(5-(2-(trifluoromethyl)pyrimidin-5-yl)-1H-pyrrolo[2,3-b]pyridine-3-carbonyl)phenyl)-3,3,3-trifluoro-propane-1-sulfonamide] | < 0.1 µM | +++ (IC50(off-target)/IC50(MKK4) > 100) | ++·+ | +++ (IC50(off-target)/IC50(MKK4) > 100)
7 | CCCS(=O)(=O)Nc1c(F)ccc(C(=O)c2c[nH]c3ncc(-c4cccc(C#N)c4)cc23)c1F [Example 143, N-(3-(5-(3-cyanophenyl)-1-pyrrolo[2,3-b]pyridine-3-carbonyl)-2,6-difluorophenyl)propane-1-sulfonamide] | < 0.1 µM | +++ (IC50(off-target)/IC50(MKK4) > 100) | ++ (100 ≥ IC50(off-target)/IC50(MKK4) > 10) | +++ (IC50(off-target)/IC50(MKK4) > 100)
